Results from US20070154393A1, “Bioassay for volatile low molecular weight insecticides and methods of use” (priority 2005, published 2007).
“Also recorded” adds a separate entry of the source. Structures can show the parent of a compound that is named as a salt. Where two headings read alike, the source gives them in different places.

Tests used:
[1] = system: para-ts1 (para-R) strain of Drosophila (sodium channel point mutation); assay type: in vivo; settings: significance at p<0.05, method of Robertson and Preisler
Description: (§1) Four Drosophila strains were used, all obtained from the Bloomington Drosophila Stock Center (Indiana University; Bloomington, Ind.). The Canton-S strain was used as the insecticide-susceptible standard. […] Two resistant neurological-mutant strains were also tested. […] Flies were reared in 100-ml vials capped with acetate plugs (Fisher Scientific; Suwanee, Ga.) on a commercial diet (JAZZ-MIX; Fisher Scientific). […] Mixed-sex adults, less than 1-wk old, were used in bioassays.
(§2) All volatile insecticide stocks were prepared at 100 μg/μl in analytical grade acetone. Rather than weigh the highly volatile liquid insecticides (i.e., all compounds except benzothiophene), weight was determined based on the density-volume relationship of each compound. […] The insecticide synergists PBO (piperonyl butoxide) and DEF (SSS-tributyl-phosphoro-trithioate) were obtained from Fluka Chemical Co. (Basel, Switzerland) and Mobay Chemical Co. (Kansas City, Mo.). […] Synergist stocks were prepared at 100 μg/ml in analytical grade acetone.
(§3) Briefly, bioassays took place in 0.5-l glass jars with metal lids. Mixed-sex flies were isolated from lab colonies and placed in 4-ml dram vials in groups of ten, along with a dried piece of laboratory diet. The dram vials were capped with open-top septum caps that were covered with fine mesh (held in place by non-toxic glue). For bioassays, the assembled dram vials were placed into the 0.5-l jars along with a folded filter paper “tent” (Whatman #1; Vineland, N.J.). The filter paper was treated with either an insecticide dilution or acetone, the jar was sealed with the metal lid, and the bioassay proceeded for 24-hr at room temperature. Mortality was scored based on a complete lack of movement by the flies. Four concentrations plus an acetone control were tested for all insecticides. Between five and ten replicates were performed for each concentration range on each strain-insecticide combination. Synergist bioassays were performed with a slight modification. Synergist stocks were applied to dram vials at 100 μl per vial to provide assay concentrations of 10 μg per vial. […] After treatment, vials were held at an angle in a fume hood and rotated ¼-turn each minute until the acetone evaporated. Flies and diet were added as above and held for 1-hr. Assays were initiated, run, and scored as above.
(§4) Probit analysis was performed using PROC PROBIT in the SAS software package (SAS Institute; Cary, N.C.). If control mortality ever exceeded 10% in a given replicate, that replicate was discarded.

[2] = system: metabolically-resistant Hikone-R strain of Drosophila (elevated cytochrome P450); assay type: in vivo
Description: as §1, §2, §3, §4

[3] = system: Rd1 (Rdl-R) strain of Drosophila (GABA-gated chloride channel point mutation); assay type: in vivo, Drosophila melanogaster
Excerpt: (§5) Four Drosophila strains were used, all obtained from the Bloomington Drosophila Stock Center (Indiana University; Bloomington, Ind.). The Canton-S strain was used as the insecticide-susceptible standard. The Hikone-R strain is metabolically-resistant with elevated cytochrome P450 levels (Waters et al., 1984; Sundseth et al., 1989; Le Goff et al., 2003; Festucci-Buselli et al., 2005). Hikone-R is resistant to a number of insecticides, including malathion, DDT and neonicotinoids (Sundseth et al., 1989; Daborn et al., 2001). Two resistant neurological-mutant strains were also tested. […] Flies were reared in 100-ml vials capped with acetate plugs (Fisher Scientific; Suwanee, Ga.) on a commercial diet (JAZZ-MIX; Fisher Scientific). Flies were reared on a 12:12 photocycle at 24° C. and 60% relative humidity. Mixed-sex adults, less than 1-wk old, were used in bioassays.
(§6) All experimental materials were purchased from Sigma-Aldrich-Fluka (Milwaukee, Wis.) and were of 99% purity or greater. […] All volatile insecticide stocks were prepared at 100 μg/μl in analytical grade acetone. Rather than weigh the highly volatile liquid insecticides (i.e., all compounds except benzothiophene), weight was determined based on the density-volume relationship of each compound. Four serial dilutions were prepared and tested for each insecticide as described previously (Scharf et al., 2006). The insecticide synergists PBO (piperonyl butoxide) and DEF (SSS-tributyl-phosphoro-trithioate) were obtained from Fluka Chemical Co. (Basel, Switzerland) and Mobay Chemical Co. (Kansas City, Mo.). Both synergists were >95% purity. Synergist stocks were prepared at 100 μg/ml in analytical grade acetone.
(§7) Volatility bioassays were conducted exactly as described in a previous report (Scharf et al., 2006). Briefly, bioassays took place in 0.5-l glass jars with metal lids. Mixed-sex flies were isolated from lab colonies and placed in 4-ml dram vials in groups of ten, along with a dried piece of laboratory diet. The dram vials were capped with open-top septum caps that were covered with fine mesh (held in place by non-toxic glue). For bioassays, the assembled dram vials were placed into the 0.5-l jars along with a folded filter paper “tent” (Whatman #1; Vineland, N.J.). The filter paper was treated with either an insecticide dilution or acetone, the jar was sealed with the metal lid, and the bioassay proceeded for 24-hr at room temperature. Mortality was scored based on a complete lack of movement by the flies. Four concentrations plus an acetone control were tested for all insecticides. Between five and ten replicates were performed for each concentration range on each strain-insecticide combination. Synergist bioassays were performed with a slight modification. Synergist stocks were applied to dram vials at 100 μl per vial to provide assay concentrations of 10 μg per vial. […] After treatment, vials were held at an angle in a fume hood and rotated ¼-turn each minute until the acetone evaporated. Flies and diet were added as above and held for 1-hr. Assays were initiated, run, and scored as above.
(§8) Probit analysis was performed using PROC PROBIT in the SAS software package (SAS Institute; Cary, N.C.). If control mortality ever exceeded 10% in a given replicate, that replicate was discarded. Toxicity and synergist ratios at LC50 were compared statistically using the calculation described by Robertson and Preisler (1992). Using this procedure, ratios with 95% confidence intervals were calculated using a spreadsheet-based program. With this calculation, if confidence intervals include 1.0 then ratios are considered non-significant (p>0.05; Robertson and Preisler, 1992).

[4] = system: insecticide-susceptible Drosophila melanogaster (Canton-S strain); assay type: in vivo; settings: for LC50 (95% CL): in vivo
Description: The insecticide-susceptible Canton-S strain of Drosophila was obtained from the Bloomington Drosophila stock center (Indiana University, Bloomington, Ind.), and used exclusively in all studies. Flies were reared in 100-ml vials capped with acetate plugs (Fisher Scientific; Suwannee, Ga.) on a JAZZ-MIX diet (Fisher) prepared with a 2:1 ratio of water to apple juice. Flies were reared on a 12:12 photocycle at 24° C. and ambient relative humidity. Mixed-sex adults, less than 1-wk old, were used in bioassays.
Flies were briefly anesthetized in rearing vials with a pulse of CO2 and transferred to a CO2 flowbed (Genesee Scientific; San Diego, Calif.). Using a camel hair brush and a 5×5 cm sheet of rice paper, ten flies were placed into 7.0 ml dram vials. Prior to adding flies, each vial received a 0.5 cm^3 block of rearing diet that had been sufficiently dried on a paper towel to remove excessive moisture. The vials were then capped with open-top septum caps (Fisher) that were covered with fine mesh. The mesh was applied to the septum caps in advance using hot glue; it prevented fly escape but readily permitted gas exchange. The flies were allowed 1-hr to recover from the CO2 anesthesia. After one hour, single vials with flies were placed into 0.5 L glass jars, along with a filter paper tent (see FIG. 1). In a fume hood, filter paper tents were treated with insecticide dilutions or acetone for controls. The jars were then rapidly closed tightly with a metal lid. After 24 hours of exposure, mortality was scored with the aid of a magnifying glass.
All test compounds and solvents were >99% purity, and were purchased from Sigma-Aldrich Chemical (Milwaukee, Wis.). See Table 1 for a listing of the test compounds and their structures. Insecticide stock solutions were prepared at a standard concentration of 100 μg/μl in analytical grade acetone. For liquid insecticidal compounds, density in mg/μl was used to calculate weight on a per-volume basis. Stock solutions were held at −20° C. in sealed amber vials. In bioassay jars, filter paper tents were treated with stock volumes ranging from 2 to 20 μl, depending on the inherent toxicity of the test compound. These volumes of insecticide stock provided test concentrations of 200 to 2000 μg insecticide per replicate jar. A range of 4-5 concentrations plus a control were tested for each insecticide, and each range was repeated five times over at least three days. Controls received a volume of acetone identical to the highest insecticide volume that was tested (i.e., 10 μl for menthofuran; 20 μl for all other insecticides). Between uses, bioassay jars and lids were washed in a dishwasher, then baked 12-16 hr at 90° C. in a drying oven.
Probit and regression analyses were performed using the PROC PROBIT and PROC REG procedures, respectively. […] If control mortality ever exceeded 10% in a given replicate, that replicate was discarded.
as §5

[5] = system: insecticide-susceptible Canton-S strain of Drosophila; assay type: in vivo
Description: as §6, §7, §8

[6] = system: metabolically resistant Hikone-R strain of Drosophila; assay type: in vivo; settings: Hikone, FIG. 6
Description: as §6, §7, §8

[7] = significance at p<0.05, method of Robertson and Preisler
[8] = Table 3, Hikone-R, no synergist, 24 hr

Row | Compound | response of para-ts1 relative to Canton-S (LC50 ratio, FIG. 7B), in words [1] | Slope ± Std. Error (probit mortality line) ([2]; Table 2, Hikone-R, 24 hr) | Slope ± Std. Error (probit mortality line) [2, 8] | response of Hikone-R relative to Canton-S (LC50 ratio Hikone÷Canton, FIG. 5), in words [2, 7] | response of Rd1 relative to Canton-S (LC50 ratio, FIG. 7A), in words ([3]; in vivo) | other results
1 | CCCCOC=O [Butyl Formate, butyl formate] | non-significant tolerance |  |  |  |  | LC50 ([2]; in vivo): 1570.0 μg insecticide per 0.5 liter of headspace; Slope ± Std. Error (probit mortality line) ([2]; in vivo): 8.82 ± 2.00; LC50 ([3]; in vivo): 1246.0 μg insecticide per 0.5 liter of headspace; response of Rd1 relative to Canton-S (LC50 ratio, FIG. 7A), in words [3, 7]: non-significant tolerance
2 | COP(=O)(OC)OC=C(Cl)Cl [Dichlorvos (DDVP), Dichlorvos, reference compound] |  | 4.64 ± 0.59 |  |  |  | 
3 | O=COCCOC=O [EGDF, ethylene glycol di-formate] |  | 5.02 ± 2.41 | 5.02 ± 2.41 | significant resistance |  | knockdown ([4]; Canton-S, by 2-hr, lasting through 24-hr, in all bioassay replicates): 100%
4 | Cc1coc2c1CC[C@H](C)C2 [Menthofuran, menthofuran] | enhanced susceptibility | 4.12 ± 0.45 | 4.12 ± 0.45 |  | significantly enhanced susceptibility | efficacy level when mixed with the P450 inhibitor PBO ([5]; 'levels on the same scale' as MITC and DDVP): < 100 µg/L; effect of PBO treatment on toxicity, in words ([5]; Canton-S, FIG. 6): increased menthofuran toxicity; effect of PBO treatment on toxicity, in words [6]: no effects; response of Hikone-R relative to Canton-S (LC50 ratio Hikone÷Canton, FIG. 5), in words ([2]; significance at p<0.05, method of Robertson and Preisler, listed as mentho-): significantly enhanced susceptibility; response of Hikone-R relative to Canton-S (LC50 ratio Hikone÷Canton, FIG. 5), in words ([2]; significance at p<0.05, method of Robertson and Preisler, listed as menthofuran): significantly more susceptible; also recorded: greater susceptibility; also recorded: enhanced susceptibility
5 | CN=C=S [Methylisothiocyanate (MITC), Methylisothiocyanate, reference compound] |  | 4.30 ± 0.62 |  | significantly enhanced susceptibility |  | 
6 | CCCOC=O [Propyl Formate, propyl formate] | non-significant tolerance | 7.43 ± 1.26 | 7.43 ± 1.26 |  | significant resistance | LC50 (95% CL) [4]: 1833.0 (1787.0 − 1884.0) μg/jar
7 | CCCCCCCOC=O [Heptyl Formate, heptyl formate] |  |  |  |  |  | LC50 ([2]; in vivo): 1483.0 μg insecticide per 0.5 liter of headspace; response of Hikone-R relative to Canton-S (LC50 ratio Hikone÷Canton, FIG. 5), in words ([2]; in vivo): non-significant tolerance; LC50 ([3]; in vivo): 1656.6 μg insecticide per 0.5 liter of headspace; response of Rd1 relative to Canton-S (LC50 ratio, FIG. 7A), in words [3, 7]: non-significant tolerance
8 | CC(C)(C)OC=O [t-Butyl Formate, tert-butyl formate] | elevated tolerance; also recorded: significant tolerance | 44.70 | 44.70 | non-significant tolerance | significant resistance; also recorded: significant tolerance | LC50 (95% CL) [4]: 1981.0 (1917.0 − 2048.4) μg/jar
9 | c1ccc2sccc2c1 [Benzothiophene, benzothiophene] | enhanced susceptibility | 4.42 ± 0.46 | 4.42 ± 0.46 | significantly enhanced susceptibility; also recorded: greater susceptibility | significantly enhanced susceptibility | 
10 | CCCCCCOC=O [Hexyl Formate, hexyl formate] | non-significant tolerance | 3.26 ± 0.65 | 3.26 ± 0.65 | non-significant tolerance | non-significant tolerance | 
11 | O=CO [Formic Acid, reference compound] |  | 3.29 ± 1.02 |  |  |  | 
